Like-named read-outs stand apart in the source and are kept apart here.
Tests used:
[1] = biological target: T1, HCV NS3/4A protease complex (UniProt P27958, C1454S/C1711G, species not given); test: Recombinant HCV NS3/4A protease complex FRET peptide assay (strain not stated); format: biochemical
T1 construct: fused on or other part: Three-lysine solubilising tail at the C-terminus of NS4A

[2] = system: HCV replicon in Huh7 cells; test: HCV replicon cell-based assay; set-up: species or system HCV strain 1B; conditions: HCV replicon, 4 days, read-out: EC50 range
Description: HCV Replicon Cell-based Assay
An HCV replicon whole cell system was established as described by Lohmann V, Komer F, Koch J, Herian U, Theilmann L, Bartenschlager R., Science 285(5424):110–3 (1999). This system enabled us to evaluate the effects of our HCV Protease compounds on HCV RNA replication. Briefly, using the HCV strain 1B sequence described in the Lohmann paper (Assession number:AJ238799), an HCV cDNA was generated encoding the 5′ internal ribosome entry site (IRES), the neomycin resistance gene, the EMCV (encephalomyocarditis viurs)-IRES and the HCV nonstructural proteins, NS3-NS5B, and 3′ non-translated region (NTR). In vitro transcripts of the cDNA were transfected into the human hepatoma cell line, Huh7. […] Resulting cell lines were characterized for positive and negative strand RNA production and protein production over time.
Huh7 cells, constitutively expressing the HCV replicon, were grown in Dulbecco's Modified Eagle Media (DMEM) containing 10% Fetal calf serum (FCS) and 1 mg/ml G418 (Gibco-BRL). Cells were seeded the night before (1.5×10^4 cells/well) in 96-well tissue-culture sterile plates. Compound and no compound controls were prepared in DMEM containing 4% FCS, 1:100 Penicillin/Streptomysin, 1:100 L-glutamine and 5% DMSO in the dilution plate (0.5% DMSO final concentration in the assay). Compound/DMSO mixes were added to the cells and incubated for 4 days at 37° C. After 4 days, plates were rinsed thoroughly with Phosphate-Buffered Saline (PBS) (3 times 150 μl). The cells were lysed with 25 μl of a lysis assay reagent containing the FRET peptide (RET S1, as described for the in vitro enzyme assay). The lysis assay reagent was made from 5× cell Luciferase cell culture lysis reagent (Promega #E153A) diluted to 1× with distilled water, NaCl added to 150 mM final, the FRET peptide diluted to 10 μM final from a 2 mM stock in 100% DMSO. The plate was then placed into the Cytofluor 4000 instrument which had been set to 340 nm excitation/490 emission, automatic mode for 21 cycles and the plate read in a kinetic mode. EC50 determinations were carried out as described for the IC50 determinations.
As a secondary assay, EC50 determinations from the replicon FRET assay were confirmed in a quantitative RNA assay. Cells were lyzed using the Rneasy kit (Qiagen). Purified total RNA was normalized using RiboGreen (Jones L J, Yue S T, Cheung C Y, Singer V L, Anal. Chem., 265(2):368–74 (1998)) and relative quantitation of HCV RNA expression assessed using the Taqman procedure (Kolykhalov A A, Mihalik K, Feinstone S M, Rice C M, Journal of Virology 74, 2046–2051 (2000)) and the Platinum Quantitative RT-PCR Thermoscript One-Step kit (Invitrogen cat # 11731-015). Briefly, RNA made to a volume of 5 μl (<1 ng) was added to a 20 μl Ready-Mix containing the following: 1.25× Thermoscript reaction mix (containing Magnesium Sulfate and 2-deoxynucleoside 5′-triphosphates (dNTPs)), 3 mM dNTPs, 200 nM forward primer (sequence: 5′-[…]-3′), 600 nM reverse primer (5′-[…]-3′), 100 nM probe (5′-6-FAM-[…]-BHQ-1-3′)(FAM: Fluorescein-aminohexyl amidite; BHQ: Black Hole Quencher), 1 μM Rbx reference dye (Invitrogen cat # 12223-012) and Thermoscript Plus Platinum Taq polymerase mixture. All primers were designed with ABI Prism 7700 software and obtained from Biosearch Technologies, Novato, Calif. Samples containing known concentrations of HCV RNA transcript were run as standards. Using the following cycling protocol (50° C., 30 min; 95° C., 5 min; 40 cycles of 95° C., 15 sec, 60° C., 1 min), HCV RNA expression was quantitated as described in the Perkin Elmer manual using the ABI Prism 7700 Sequence Detector.
The luciferase reporter assay was also used to confirm compound potency in the replicon. Utilization of a replicon luciferase reporter assay was first described by Krieger et al (Krieger N, Lohmann V, and Bartenschlager R, J. Virol. 75(10):4614–4624 (2001)). […]

[3] = HCV NS3/4A protease enzyme assay, read-out: IC50 range

| Structure (SMILES) | IC50 [1, 3] [nM] | EC50 ([2]; Hepatitis C virus, Huh-7, 96 h) [nM] | IC50 ([1]; read-out: IC50 range, HCV NS3/4A protease enzyme assay) [nM] | EC50 [2] [nM] |
| --- | --- | --- | --- | --- |
| C=CC1C[C@]1(NC(=O)[C@@H]1C[C@@H](OC(=O)Nc2ccccc2Cl)CN1C(=O)[C@@H](NC(=O)OC(C)(C)C)C(C)(C)C)C(=O)NS(=O)(=O)C1CC1 (stereo partly drawn) [Compound 53, BocNH-P3(t-BuGly)-P2(Hyp(O—CO(NH—(2-chloro-phenyl))))-P1(1R,2S VinylAcca)—CONHSO2Cyclopropane] | < 100 | 1000 to 10000 |  |  |
| C=CC1C[C@]1(NC(=O)[C@@H]1C[C@@H](OC(=O)Nc2cc(C(F)(F)F)ccc2N2CCCC2)CN1C(=O)[C@@H](NC(=O)OC(C)(C)C)C(C)(C)C)C(=O)NS(=O)(=O)C1CC1 (stereo partly drawn) [Compound 84, BocNH-P3(t-BuGly)-P2(Hyp(O—CO(NH—(2-Pyrrolidin-1-yl-5-trifluoromethyl-phenyl))))-P1(1R,2S VinylAcca)—CONHSO2Cyclopropane] | < 100 | 100 to 1000 |  |  |
| C=CC1C[C@]1(NC(=O)[C@@H]1C[C@@H](OC(=O)Nc2ccccc2C(=O)OC)CN1C(=O)[C@@H](NC(=O)OC(C)(C)C)C(C)(C)C)C(=O)NS(=O)(=O)C1CC1 (stereo partly drawn) [Compound 30, BocNH-P3(t-BuGly)-P2(Hyp(O—CO(NH—(2-benzoic acid methyl ester))))-P1(1R,2S VinylAcca)—CONHSO2Cyclopropane] | < 100 | < 100 |  |  |
| C=CC1C[C@]1(NC(=O)[C@@H]1C[C@@H](OC(=O)Nc2ccccc2-n2nc3cc(OC)c(OC)cc3n2)CN1C(=O)[C@@H](NC(=O)OC(C)(C)C)C(C)(C)C)C(=O)NS(=O)(=O)C1CC1 (stereo partly drawn) [Compound 87, BocNH-P3(t-BuGly)-P2(Hyp(O—CO(NH—(2-(5,6-Dimethoxy-benzotriazol-2-yl)-phenyl))))-P1(1R,2S VinylAcca)—CONHSO2Cyclopropane] | < 100 | < 100 |  |  |
| C=CC1C[C@]1(NC(=O)[C@@H]1C[C@@H](OC(=O)N(C(C)C)C(C)C)CN1C(=O)[C@@H](NC(=O)OC(C)(C)C)C(C)(C)C)C(=O)NS(=O)(=O)C1CC1 (stereo partly drawn) [Compound 45, BocNH-P3(t-BuGly)-P2(Hyp(O—CO(N,N-diisopropyl)))-P1(1R,2S VinylAcca)—CONHSO2Cyclopropane] |  | 100 to 1000 | < 100 |  |
| C=CC1C[C@]1(NC(=O)[C@@H]1C[C@@H](OC(=O)Nc2ccccc2C(=O)OCCCC)CN1C(=O)[C@@H](NC(=O)OC(C)(C)C)C(C)(C)C)C(=O)NS(=O)(=O)C1CC1 (stereo partly drawn) [Compound 64, BocNH-P3(t-BuGly)-P2(Hyp(O—CO(NH—(2-benzoic acid butyl ester))))-P1(1R,2S VinylAcca)—CONHSO2Cyclopropane] | < 100 | 100 to 1000 |  |  |
| C=CC1C[C@]1(NC(=O)[C@@H]1C[C@@H](OC(=O)Nc2cscc2C(=O)OC)CN1C(=O)[C@@H](NC(=O)OC(C)(C)C)C(C)(C)C)C(=O)NS(=O)(=O)C1CC1 (stereo partly drawn) [Compound 71, BocNH-P3(t-BuGly)-P2(Hyp(O—CO(NH-4-(thiophene-3-carboxylic acid methyl ester))))-P1(1R,2S VinylAcca)—CONHSO2Cyclopropane] | < 100 | 100 to 1000 |  |  |
| C=CC1C[C@]1(NC(=O)[C@@H]1C[C@@H](OC(=O)Nc2ccc(Cl)cc2-c2cc(C)n[nH]2)CN1C(=O)[C@@H](NC(=O)OC(C)(C)C)C(C)(C)C)C(=O)NS(=O)(=O)C1CC1 (stereo partly drawn) [Compound 78, BocNH-P3(t-BuGly)-P2(Hyp(O—CO(NH-1-(4-Chloro-2-(5-methyl-2H-pyrazol-3-yl)phenyl))))-P1(1R,2S VinylAcca)—CONHSO2Cyclopropane] | 100 to 1000 | > 10000 |  |  |
| C=CC1C[C@]1(NC(=O)[C@@H]1C[C@@H](OC(=O)Nc2cccc(C)c2C)CN1C(=O)[C@@H](NC(=O)OC(C)(C)C)C(C)(C)C)C(=O)NS(=O)(=O)C1CC1 (stereo partly drawn) [Compound 42, BocNH-P3(t-BuGly)-P2(Hyp(O—CO(NH—(2,3-Dimethyl-phenyl))))-P1(1R,2S VinylAcca)—CONHSO2Cyclopropane] | < 100 | 1000 to 10000 |  |  |
| C=CC1C[C@]1(NC(=O)[C@@H]1C[C@@H](OC(=O)Nc2cccc(C(C)=O)c2)CN1C(=O)[C@@H](NC(=O)OC(C)(C)C)C(C)(C)C)C(=O)NS(=O)(=O)C1CC1 (stereo partly drawn) [Compound 47, BocNH-P3(t-BuGly)-P2(Hyp(O—CO(NH—(3-acetyl-phenyl))))-P1(1R,2S VinylAcca)—CONHSO2Cyclopropane] | 100 to 1000 | > 10000 |  |  |
| C=CC1C[C@]1(NC(=O)[C@@H]1C[C@@H](OC(=O)Nc2ccccc2C)CN1C(=O)[C@@H](NC(=O)OC(C)(C)C)C(C)(C)C)C(=O)NS(=O)(=O)C1CC1 (stereo partly drawn) [Compound 57] | 100 to 1000 | 1000 to 10000 |  |  |
| C=CC1C[C@]1(NC(=O)[C@@H]1C[C@@H](OC(=O)Nc2cccc(C(F)(F)F)c2)CN1C(=O)[C@@H](NC(=O)OC(C)(C)C)C(C)(C)C)C(=O)NS(=O)(=O)C1CC1 (stereo partly drawn) [Compound 34, BocNH-P3(t-BuGly)-P2(Hyp(O—CO(NH—(3-trifluoromethyl-phenyl))))-P1(1R,2S VinylAcca)—CONHSO2Cyclopropane] | 100 to 1000 | 1000 to 10000 |  |  |
| C=CC1C[C@]1(NC(=O)[C@@H]1C[C@@H](OC(=O)Nc2ccc(OC)cc2[N+](=O)[O-])CN1C(=O)[C@@H](NC(=O)OC(C)(C)C)C(C)(C)C)C(=O)NS(=O)(=O)C1CC1 (stereo partly drawn) [Compound 41, BocNH-P3(t-BuGly)-P2(Hyp(O—CO(NH—(4-Methoxy-2-nitro-phenyl))))-P1(1R,2S VinylAcca)—CONHSO2Cyclopropane] | < 100 | 1000 to 10000 |  |  |
| C=CC1C[C@]1(NC(=O)[C@@H]1C[C@@H](OC(=O)Nc2ccccc2/C(=N/O)c2ccccc2)CN1C(=O)[C@@H](NC(=O)OC(C)(C)C)C(C)(C)C)C(=O)NS(=O)(=O)C1CC1 (single isomer, unassigned) [Compound 77a] | 100 to 1000 |  |  | 1000 to 10000 |
| C=CC1C[C@]1(NC(=O)[C@@H]1C[C@@H](OC(=O)Nc2cc(C)nn2-c2ccccc2)CN1C(=O)[C@@H](NC(=O)OC(C)(C)C)C(C)(C)C)C(=O)NS(=O)(=O)C1CC1 (stereo partly drawn) [Compound 73, BocNH-P3(t-BuGly)-P2(Hyp(O—CO(NH—(5-Methyl-2-phenyl-4H-pyrazol-3-yl))))-P1(1R,2S VinylAcca)—CONHSO2 Cyclopropane] | < 100 | > 10000 |  |  |
| C=CC1C[C@]1(NC(=O)[C@@H]1C[C@@H](OC(=O)N2CCOCC2)CN1C(=O)[C@@H](NC(=O)OC(C)(C)C)C(C)(C)C)C(=O)NS(=O)(=O)C1CC1 (stereo partly drawn) [Compound 4, BocNH-P3(t-BuGly)-P2(Hyp(O—CO—(4-morpholino)))-P1(1R,2S VinylAcca)—CONHSO2Cyclopropane] | 100 to 1000 | > 10000 |  |  |
| C=CC1C[C@]1(NC(=O)[C@@H]1C[C@@H](OC(=O)Nc2cc(C(C)=O)ccc2N2CCC(C(=O)OCC)CC2)CN1C(=O)[C@@H](NC(=O)OC(C)(C)C)C(C)(C)C)C(=O)NS(=O)(=O)C1CC1 (stereo partly drawn) [Compound 76, BocNH-P3(t-BuGly)-P2(Hyp(O—CO(NH-2-(1-(4-acetyl-phenyl))-piperidine-4-carboxylic acid ethyl ester)))-P1(1R,2S VinylAcca)—CONHSO2Cyclopropane] | < 100 | 100 to 1000 |  |  |
| C=CC1C[C@]1(NC(=O)[C@@H]1C[C@@H](OC(=O)Nc2ccccc2[N+](=O)[O-])CN1C(=O)[C@@H](NC(=O)OC(C)(C)C)C(C)(C)C)C(=O)NS(=O)(=O)C1CC1 (stereo partly drawn) [Compound 60, BocNH-P3(t-BuGly)-P2(Hyp(O—CO(NH—(2-nitro-phenyl))))-P1(1R,2S VinylAcca)—CONHSO2Cyclopropane] | < 100 | 100 to 1000 |  |  |

— patent US7041698B2, “Hepatitis C virus inhibitors” (Bristol-Myers Squibb Company, priority 2002, dated 2006)
